Molecules are shown by their SMILES.

One test relates to αvβ integrins. Description: Immunostaining of αvβ integrins in IVD sections of aged mice. Type of test: in vivo, mouse. Particulars: 18-month old mice; only αvβ6 among αvβ3, αvβ5, αvβ6, β8. The procedure:
For immunocytochemical staining, we incubated GFP labeled NP cells co-stained with primary antibody to rabbit PTH1R PRB-635P (Covance, 1:100) for 1 h and subsequently stained with secondary antibodies conjugated with fluorescence at room temperature. At the time of euthanasia, we dissected and fixed the lumbar vertebral spine in 10% buffered formalin for 48 h, decalcified them in 10% EDTA (pH 7.4) for 14-21 days and embedded them in paraffin or optimal cutting temperature (OCT) compound (Sakura Finetek). Fourmicrometer-thick coronal-oriented sections of the L1-L6 spine were processed for safranin O and fast green staining. Sections for immunostaining was performed using a standard protocol and incubated with primary antibodies to rabbit ACAN (Abcam, 1:100), CCN2 (Abcam, 1:100), integrin β8 (Abcam, 1:200), pCREB (Abcam, 1:100) and PTH1R PRB-635P (Covance, 1:100), mouse pSmad2/3 (Santa Cruz, 1:100), integrin αvβ6 (Millipore, 1:100), integrin αvβ3 (Bioss, 1:100,), integrin αvβ5 (Bioss, 1:100) at 4° C. overnight. For immunohistochemical staining, a horse radish peroxidase-streptavidin detection system (Dako) was subsequently used to detect the immunoactivity, followed by counterstaining with hematoxylin (Sigma-Aldrich). For immunofluorescent assay, the slides were incubated with secondary antibodies conjugated with fluorescence at room temperature for 1 h while avoiding light. […]

In another test the test system is NP tissues. Description: Western blot of pSmad2 in NP tissue of aged mice. Particulars: NP tissues of 18-month-old mice. The test is classed as in vivo, mouse. Here is the method:
Western blot analyses were conducted on the protein lysates from in vitro cultured NP cells or NP tissues from mice at specific time points after PTH (1-34) treatment and human at different ages with lumbar disc degeneration. The protein extract was centrifuged, the concentration of supernatant evaluated by DC protein assay (Bio-Rad Laboratories), and then separated by SDS-PAGE and blotted on a polyvinylidene fluoride membrane (Bio-Rad Laboratories). Following incubation in specific antibodies, we detected proteins using an enhanced chemiluminescence kit (Amersham Biosciences). We used specific antibodies recognizing rabbit CTGF (CCN2) (Abcam, 1:1000), Aggrecan (ACAN) (Abcan, 1:1000), p-Smad2 (Cell Signaling Technology Inc., 1:1000), Smad2 (Cell Signaling Technology Inc., 1:1000), GAPDH (Cell Signaling Technology Inc., 1:1000), CREB (Abcam, 1:2500), pCREB (Abcam, 1:2500), PTH1R PRB-635P (Covance, 1:100), PTH1R PRB-640P (Covance, 1:500) and goat integrin β6 (Santa Cruz, 1:500) to examine the protein concentrations in the lysates. Co-immunoprecipitation analyses were conducted on the nuclear and cytoplasmic protein extraction using NE-PER Nuclear and Cytoplasmic Extraction Kit (Pierce Thermo Scientific, 78833) from in vitro cultured NP cells treated with PTH (1-34) or vehicle.
For orientation: Immunoblotting shows a protein as a band on a membrane.

As for `CC[C@H](C)[C@H](NC(=O)[C@H](CCC(=O)O)NC(=O)[C@H](CO)NC(=O)[C@@H](NC(=O)[C@@H](N)CO)C(C)C)C(=O)N[C@@H](CCC(N)=O)C(=O)N[C@@H](CC(C)C)C(=O)N[C@@H](CCSC)C(=O)N[C@@H](Cc1cnc[nH]1)C(=O)N[C@@H](CC(N)=O)C(=O)N[C@@H](CC(C)C)C(=O)NCC(=O)N[C@@H](CCCCN)C(=O)N[C@@H](Cc1cnc[nH]1)C(=O)N[C@@H](CC(C)C)C(=O)N[C@@H](CC(N)=O)C(=O)N[C@@H](CO)C(=O)N[C@@H](CCSC)C(=O)N[C@@H](CCC(=O)O)C(=O)N[C@@H](CCCN=C(N)N)C(=O)N[C@H](C(=O)N[C@@H](CCC(=O)O)C(=O)N[C@@H](Cc1c[nH]c2ccccc12)C(=O)N[C@@H](CC(C)C)C(=O)N[C@@H](CCCN=C(N)N)C(=O)N[C@@H](CCCCN)C(=O)N[C@@H](CCCCN)C(=O)N[C@@H](CC(C)C)C(=O)N[C@@H](CCC(N)=O)C(=O)N[C@@H](CC(=O)O)C(=O)N[C@H](C(=O)N[C@@H](Cc1cnc[nH]1)C(=O)N[C@@H](CC(N)=O)C(=O)N[C@@H](Cc1ccccc1)C(=O)O)C(C)C)C(C)C` [PTH (1-34), teriparatide], the “level of αvβ6 integrin” value with αvβ integrins is on record as “significantly increased”. The “pSmad2 (Western blot)” value with NP tissues is on record as “increased”.

The values above are taken from patent US20210205638A1, “PARATHYROID HORMONE AND REGENERATION OF DEGENERATIVE DISCS DISEASE” (THE JOHNS HOPKINS UNIVERSITY, priority 2017, published 2021).
